# Measured values published in patent US11730716B2, “Compounds for treating ophthalmic diseases and disorders” (priority 2014, dated 2023).
# Tests used:
# [1] = tested on: dry eye syndrome; type: in vivo
# Procedure: The aim of the study was to evaluate the tolerability and therapeutic potential of PP-001 in a murine model of dry eye syndrome.
# Dry eye symptoms were induced in forty (40) pigmented C57BL/6N mice by exposing them to a controlled environment (relative humidity<25%, air-flow 15 L/min, temperature 20-22° C.) and systemic scopolamine administration (0.5 mg/72 h) for 10 days.
# Mice were randomized into 4 groups of 10 animals and treated with PP-001, Restasis®, placebo and the forth group remained untreated.
# Tear production and corneal defects were evaluated on days 3, 7 and 10 using phenol red thread and fluorescence staining in each of the four groups.
# Preparation of Eye Drop Solutions:
# Placebo eye drops: A solution containing 20 mg/ml polyvinylpyrrolidone, 10 mg/ml glycerol 85%, 2 mg/ml hydroxypropyl methylcellulose in sodium phosphate buffer adjusted to pH 7.
# PP-001 eye drops: A solution containing 1.6 mg/ml PP-001, 20 mg/ml polyvinylpyrrolidone, 10 mg/ml glycerol 85%, 2 mg/ml hydroxypropyl methylcellulose in sodium phosphate buffer adjusted to pH 7.
# Positive control: Restasis® (cyclosporine ophthalmic emulsion from Allergan)
# [2] = tested on: experimental autoimmune uveitis (EAU); assay: Prevention of relapses in the experimental autoimmune uveitis (EAU) rat model, R14-induced, intravitreal injection; type: in vivo, Lewis rats
# Excerpt: Experimental autoimmune uveitis (EAU) in Lewis rats is a model for human endogenous uveitis. The disease is mediated by CD4+ T lymphocytes of the T helper 1 (Th1) and Th17 subtypes. In Lewis rats the disease was induced by immunizing animals with retinal antigens such as interphotoreceptor retiniod-binding protein (IRBP) and adjuvant. IRBP is also considered to be an autoantigen in humans. Peptide R14, a 23mer from IRBP, is the most pathogenic epitope for Lewis rats. Immunization with these peptides emulsified in Complete Freund's Adjuvant (CFA) leads to severe inflammation of the anterior chamber of the eyes and destruction of the retinal architecture. R14 causes a relapsing-remitting disease with an early onset (about day 7), the peak of EAU between day 10 to 14 and the remission around day 17/18. 20 rats were immunized with 15 μg IRBP-peptide R14 emulsified in complete Freund's adjuvant. After primary disease, PP-001 was injected intravitreally at day 18 (6 μl=3 μg PP-001) in both eyes of 10 animals. One eye in this group dropped out because of penetrating the eye during injection. 10 animals received 6 μl PBS intravitreally in both eyes as control group. Clinical grade of inflammation in the anterior chamber was determined daily.
# [3] = tested on: vascular endothelial growth factor (VEGF); assay: Cellular protein expression of VEGF in antigen-stimulated rat lymph node/T cell cultures (Luminex multiplex cytokine assay); type: cell-based; settings: 3 μM, 10 μM and 30 μM; supernatants after 24 h
# Procedure: Rats were immunized with 25 μg of the respective peptide as previously described.
# After 10 to 12 days popliteal, inguinal and para-aortal lymph nodes (LN) were collected, single cell suspensions were stimulated with the respective antigen peptides at a final concentration of 10 μg/ml RPMI1640, supplemented with Penicillin/Streptomycin, L-Glutamine, essential and non-essential amino acids (all 4 from PAA, Colebee, Germany), 12.5 μM […] and 1% normal rat serum. After 3 days the cells were expanded in culture medium supplemented with 10% spleen conditioned medium (from Concanavalin A-stimulated rat spleen cells) and 5% fetal calf serum (FCS) for 4 days.
# For restimulation 0.5-2×10^6 T cells/ml were incubated with irradiated (8 Gy) rat thymocytes (3-10 fold more than T cells) as antigen-presenting cells (APC) and 10 μg/ml of the specific antigen peptide in culture medium as described for the first stimulation. After two days of culturing cells were expanded with conditioned medium for 5 days as described above, followed by another cycle of restimulation and expansion. […]
# [4] = tested on: intraocular tissues; assay: Local tolerability of intravitreal injections of PP-001 in rat eyes; type: in vivo; settings: high dose PP-001 (150 μg/ml, 10 μl intravitreal); 8 days
# Procedure: For this purpose, three different doses of PP-001, dissolved in phosphate-buffered saline (PBS) and a vehicle control with PBS only were injected into the posterior chamber (=vitreous) of rat eyes. The eyes (anterior chamber) were examined daily with an ophthalmoscope and after 8 days the experiment was terminated, and the eyes processed for histology (cryosections).
# 8 Lewis rats (age 7-8 weeks) were anesthetized using 0.5 mg/kg medetomidine s.c. Additional topical anesthesia with 0.4% oxybuprocaine eye drops was applied. After intraocular injection sedation was antagonized with an s.c. injection of 2.5 mg/kg atipamezol.
# 10 μl of solution were injected into the vitreous of both eyes with a 30 G needle, controlled under an operation microscope. The perpendicular injection is penetrating the […] and should neither touch the lens or the retina. After injection an antibiotic ointment was applied to the eyes to avoid infections.
# PP-001 was dissolved in PBS and applied intravitreally in 3 different concentrations.
# Group 1, Rat 1-1 and 1-2: 10 μl PBS (vehicle control)
# [5] = tested on: retinal and choroidal tissue; assay: Tolerability of intravitreal injections of PP-001 solutions in Dutch Belted rabbits; type: in vivo; settings: intravitreal 0.0625 or 0.125 mg/eye
# [6] = in vivo; design: species or system Dutch Belted rabbits; settings: male, Dutch Belted, rabbit, topical or ocular; for half-life: t1/2
# Procedure: 36 male Dutch Belted rabbits were divided in […]: 16 animals each in group 1 and 2 received 0.0625 mg and 0.125 mg PP-001 per eye, 4 animals were administered with dose vehicle (sucrose solution) only. At designated time points animals were sacrificed and vitreous humor, retina, and choroid were collected from both eyes of each animal and weighed. Samples were analysed for PP-001 concentration using a specific HPLC/MS/MS analytical method and PK parameters were calculated with Phoenix WinNonlin software (v6.3) using a non-compartmental model with sparse sampling.
# Animals were anesthetized with an intramuscular injection of ketamine hydrochloride (30 mg/kg) and xylazine (5 mg/kg) for the injection procedure.
# The study director performed the IVT injection in both eyes (OU). Topical ocular anesthetics were used per ASI SOPs.
# The eyes and surrounding tissues were cleaned and disinfected with 2% betadine ophthalmic solution and then rinsed with basic salt solution (BSS). Using a 30 gauge needle with length no greater than ⅝ inch, injections were made 5 to 7 mm from the limbus (where the cornea meets the sclera). Once inserted, the PP-001 or vehicle control was injected at a volume of 25 μL per eye. The needle was then removed and the eye rinsed with BSS.
# Vitreous humor and choroid/sclera/retina were collected from both eyes of each animal at the designated time point and analyzed for PP-001 concentration using a specific HPLC/MS/MS analytical method.
# [7] = tested on: choroidal neovascularization; assay: Inhibition of choroidal neovascularization in PDSAg-induced EAU rat model; type: in vivo, Lewis rats
# Excerpt: Choroidal neovascularization is a known feature of posterior uveitis and a major cause of retinal destruction and loss of vision. To monitor the effect of PP-001 on neovascularization, the EAU model in Lewis rats was used. In Lewis rats the disease was induced by immunizing animals with retinal antigen PDSAg, a 14mer derived from S—Ag. Immunization with that peptide emulsified in Complete Freund's Adjuvant (CFA) leads to severe inflammation of the anterior chamber of the eyes and destruction of the retinal architecture and choroidal neovascularization Induction with PDSAg causes a monophasic disease with first clinical signs of inflammation observed between day 8 and 12 after immunization and reaching the peak of disease between day 14 and 18. Inflammation in the anterior chamber subsides until day 21 to 22 post immunization. Long term effects such as choroidal neovascularization are seen at the later stages of the disease after the inflammation of the anterior chamber has subsided. 18 Lewis rats were immunized with PDSAg. Starting at the beginning of the disease (day 9 post immunization) 6 animals were treated with PP-001 and 6 animals were treated with vehicle control. […] Post day 25 experiment was stopped and 12 eyes for each treatment group were histological analyzed for the presence of choroidal neovascularizations.
# [8] = tested on: Ad5 McEwen; assay: Experimental adenoviral ocular infection (Ad5/NZW rabbit ocular model), eye drops, plaque assay on A549 monolayers; type: in vivo
# Procedure: 25 New Zealand White rabbits were inoculated in both eyes following general anesthesia with ketamine and xylazine, topical anesthesia with proparacaine, and corneal scarification (12 cross-hatched strokes of a #25 needle) with 50 μl of 3.0×10^7 PFU/ml (1.5×10^6 PFU/eye) of Ad5 McEwen (Stock 1/17/08, 4.08×10^8 PFU/ml). Eyes were closed and gently rubbed for 5 seconds to ensure contact of the virus on all ocular surfaces.
# At least 3 h after inoculation, all eyes were cultured for virus. Following topical anesthesia with proparacaine, a single cotton-tipped swab was placed into the lower fornix of each eye, rolled over the cornea into the upper fornix to recover adenovirus from the tear film and corneal and conjunctival surfaces. The swabs from each eye were placed individually into tubes containing 1 ml of outgrowth media and were frozen at −70° C. pending plaque assay.
# On day 1, the rabbits were divided into 5 treatment groups outlined in the chart below. The five treatment groups consisted of a vehicle control, 0.16% PP-001 8 times, 6 times, and 4 times daily for 10 days, and the positive antiviral control 0.5% cidofovir (CDV).
# Begin of treatment on day 1. Drops were administered with at least a 45 min interval between drops. All eyes from all groups were cultured for virus on days 1, 3, 4, 5, 7, 9, 11, and 14 PI at least 1 h after the final doses of the treatments described above. At various times during the course of the experiment, Ad5 titers were determined on A549 cell monolayers using standard plaque assays. The ocular cultures to be titered were thawed, diluted (1:10) and inoculated onto A549 monolayers. The virus was adsorbed for 3 h. Following adsorption, 1 ml of media plus 0.5% methylcellulose was added to each well, and the plates were incubated at 37° C. in a 5% […] atmosphere. After 7 days incubation, the cells were stained with 0.5% gentian violet, and the number of plaques were counted under a dissecting microscope (25×). The viral titers were then calculated, and expressed as plaque-forming units per milliliter (PFU/ml). […]
structure (smiles),measurement,setting,value
"O=C(Nc1c(F)c(F)c(-c2cccc(OC(F)(F)F)c2)c(F)c1F)c1ccsc1C(=O)O [PP-001, 3-(2,3,5,6-tetrafluoro-3′-trifluoromethoxy-biphenyl-4-ylcarbamoyl)-thiophene-2-carboxylic acid]",corneal staining compared to placebo treatment,[1]; Day 10,reduced
same,corneal staining in comparison to the induced untreated group,"[1]; Day 10, multiple instillations",reduced significantly
same,corneal surface damage,[1]; multiple topical administrations of PP-001 1.6 mg/mL,reduced corneal surface damage comparable to Restasis®
same,time to the appearance of the first relapse,"[2]; single intravitreal injection at day 18, 3 μg per eye, compared to placebo group",delayed
same,reduction of the number of relapses,"[2]; single intravitreal injection at day 18, 6 μl = 3 μg per eye, vs PBS control",> 50%
same,protein expression of VEGF,[3],reduced
same,eyes completely normal,[4],2 of 4
same,effect on the retinal and choroidal tissue,[5],did not have any significant effect
same,Cmax,[6]; 0.0625 mg,33.2 µg/g
same,t1/2,[6]; 0.0625 mg,14.5 h
same,Cmax,"[6]; 0.0625 mg, Cmax",25.7 µg/g
same,half-life,[6]; 0.0625 mg,14.3 h
same,Cmax,[6]; 0.125 mg,56.9 µg/g
same,t1/2,[6]; 0.125 mg,13.1 h
same,Cmax,"[6]; 0.125 mg, Cmax",61.5 µg/g
same,half-life,[6]; 0.125 mg,21.4 h
same,reduction of number of choroidal neovascularizations (factor),"[7]; treatment started at beginning of uveitis (day 9 post immunization), vs vehicle, p<0.005",3
same,mean number of choroidal neovascularizations,"[7]; treatment started at day 15 (peak of disease), vehicle mean 6, p<0.05",3
same,dose response of antiviral efficacy,"[8]; 0.16% PP-001 8 times and 6 times per day vs 4 times per day, 10 days",more efficacious than 0.16% PP-001 instilled 4 times per day for 10 days
same,safety as topical antiviral agent,"[8]; 0.16% PP-001 eye drops, 4-8 times daily for 10 days",safe
same,antiviral efficacy (topical),"[8]; 0.16% PP-001 eye drops, Ad5 titers PFU/ml",efficacious
